Results reported in US7772183B2 (Bristol-Myers Squibb Company, priority 2005, dated 2010).
Where two headings read alike, the source gives them in different places.

Key:
[1] = target: T1, HCV NS3/4A protease complex, BMS strain (UniProt P27958, species not given/STRAIN_BMS); test: FRET peptide assay to monitor HCV NS3/4A proteolytic activity (BMS strain); type: biochemical, Hepatitis C virus (genotype 1a); settings: NS3/4A BMS strain; read-out: IC50 Range
T1 construct: said of H77 and J4L6S; fused on or other part: A three-lysine solubilising tail at the C-terminus of NS4A and a His tag (pET21b, Ni-NTA purification)
Outline: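 Recombinant NS3/4A complexes (aa 1027–1711) from H77 (1a) and J4L6S (1b) carried a three-lysine tail, C1711G and C1454S. They were expressed in E. coli BL21(DE3) (0.5 mM IPTG, 22 h, 20 °C), then purified by Ni-NTA and Superdex-S200 to >90% purity. The BMS strain was a genotype 1a clone from patient serum.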

[2] = system: HCV replicon in HUH-7 cells; test: HCV replicon FRET assay; type: cell-based, Hepatitis C virus (strain 1b); settings: Hepatitis C virus
Outline: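 HUH-7 cells stably carrying a genotype 1b subgenomic HCV replicon (NS3–NS5B) treated with compound for 4 days at 37° C, 0.5% DMSO final. Cytotoxicity (CC50) read by alamar Blue; cells then lysed with 10 μM FRET HCV protease peptide substrate and kinetically read (340/490 nm) for EC50.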

[3] = Huh-7, HCV replicon, for compounds tested, read-out: EC50 Range

T1 sequence (P27958 1027-1657, change not shown, one chain of several): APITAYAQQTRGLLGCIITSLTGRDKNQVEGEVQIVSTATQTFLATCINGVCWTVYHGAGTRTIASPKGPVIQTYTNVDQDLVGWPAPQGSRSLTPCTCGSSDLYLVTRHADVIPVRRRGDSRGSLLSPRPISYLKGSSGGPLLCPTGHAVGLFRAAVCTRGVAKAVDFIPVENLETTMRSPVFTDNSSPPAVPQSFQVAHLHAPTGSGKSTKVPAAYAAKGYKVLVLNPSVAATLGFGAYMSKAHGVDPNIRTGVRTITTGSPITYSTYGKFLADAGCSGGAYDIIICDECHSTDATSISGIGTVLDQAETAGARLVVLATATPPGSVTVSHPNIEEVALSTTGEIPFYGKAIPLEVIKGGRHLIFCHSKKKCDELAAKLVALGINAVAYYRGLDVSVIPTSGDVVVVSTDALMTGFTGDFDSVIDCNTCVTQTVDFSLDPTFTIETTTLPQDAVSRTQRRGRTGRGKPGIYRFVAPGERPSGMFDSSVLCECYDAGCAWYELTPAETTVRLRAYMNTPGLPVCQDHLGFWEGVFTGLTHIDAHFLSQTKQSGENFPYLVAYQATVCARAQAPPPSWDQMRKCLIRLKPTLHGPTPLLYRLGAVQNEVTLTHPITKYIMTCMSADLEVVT

| SMILES | IC50 [1] [nM] | EC50 [2, 3] [nM] | melting point [°C] | EC50 ([2]; Huh-7, read-out: EC50 Range) [nM] |
| --- | --- | --- | --- | --- |
| CC(C)(C)OC(=O)N[C@H]1CCCCC/C=C\[C@@H]2C[C@@]2(C(=O)NS(=O)(=O)C2CC2)NC(=O)[C@@H]2C[C@@H](OC(=O)c3ccc(Cl)cc3)CN2C1=O [Compound 21, 18-(4-chlorobenzoyloxy)-14-tert-butoxycarbonylamino-4-cyclopropylsulfonylaminocarbonyl-2,15-dioxo-3,16-diazatricyclo-[14.3.0.0^4,6]-nonadec-7-ene] | < 100 | < 100 | 143 to 145 | – |
| CC(C)(C)OC(=O)N[C@H]1CCCCC/C=C\[C@@H]2C[C@@]2(C(=O)NS(=O)(=O)C2CC2)NC(=O)[C@@H]2C[C@@H](OC(=O)c3cccc(Cl)c3)CN2C1=O [Compound 22, 18-(3-chorobenzoyloxy)-14-tert-butoxycarbonylamino-4-cyclopropylsulfonylaminocarbonyl-2,15-dioxo-3,16-diazatricyclo-[14.3.0.0^4,6]-nonadec-7-ene] | < 100 | < 100 | 154 to 156 | – |
| CC(C)(C)OC(=O)N[C@H]1CCCCC/C=C\[C@@H]2C[C@@]2(C(=O)NS(=O)(=O)C2CC2)NC(=O)[C@@H]2C[C@@H](OC(=O)c3ccc4nccnc4c3)CN2C1=O [Compound 24, 18-(6-quinoxalinecarbonyloxy)-14-tert-butoxycarbonylamino-4-cyclopropylsulfonylaminocarbonyl-2,15-dioxo-3,16-diazatricyclo-[14.3.0.0^4,6]-nonadec-7-ene] | < 100 | < 100 | 158 to 160 | – |
| CC(C)(C)OC(=O)N[C@H]1CCCCC/C=C\[C@@H]2C[C@@]2(C(=O)NS(=O)(=O)C2CC2)NC(=O)[C@@H]2C[C@@H](OC(=O)c3ccc4c(c3)OCCO4)CN2C1=O [Compound 25, 18-(2,3-dihydro-1,4-benzodioxine-6-carbonyloxy)-14-tert-butoxycarbonylamino-4-cyclopropylsulfonylaminocarbonyl-2,15-dioxo-3,16-diazatricyclo-[14.3.0.0^4,6]-nonadec-7-ene] | < 100 | < 100 | 199 to 201 | – |
| CC(C)(C)OC(=O)N[C@H]1CCCCC/C=C\[C@@H]2C[C@@]2(C(=O)NS(=O)(=O)C2CC2)NC(=O)[C@@H]2C[C@@H](OC(=O)c3cnccn3)CN2C1=O [Compound 27, 18-(pyrazinecarbonyloxy)-14-tert-butoxycarbonylamino-4-cyclopropylsulfonylaminocarbonyl-2,15-dioxo-3,16-diazatricyclo-[14.3.0.0^4,6]-nonadec-7-ene] | < 100 | > 1000 | 150 to 152 | – |
| CC(C)(C)OC(=O)N[C@H]1CCCCC/C=C\[C@@H]2C[C@@]2(C(=O)NS(=O)(=O)C2CC2)NC(=O)[C@@H]2C[C@@H](OC(=O)c3ccccn3)CN2C1=O [Compound 28, 18-(picolinoyloxy)-14-tert-butoxycarbonylamino-4-cyclopropylsulfonylaminocarbonyl-2,15-dioxo-3,16-diazatricyclo-[14.3.0.0^4,6]-nonadec-7-ene] | < 100 | > 1000 | 164 to 166 | – |
| CC(C)(C)OC(=O)N[C@H]1CCCCC/C=C\[C@@H]2C[C@@]2(C(=O)NS(=O)(=O)C2CC2)NC(=O)[C@@H]2C[C@@H](OC(=O)c3ccc(F)cc3)CN2C1=O [Compound 29, 18-(4-fluorobenzoyloxy)-14-tert-butoxycarbonylamino-4-cyclopropylsulfonylaminocarbonyl-2,15-dioxo-3,16-diazatricyclo-[14.3.0.0^4,6]-nonadec-7-ene] | < 100 | < 100 | 154 to 156 | – |
| CC(C)(C)OC(=O)N[C@H]1CCCCC/C=C\[C@@H]2C[C@@]2(C(=O)NS(=O)(=O)C2CC2)NC(=O)[C@@H]2C[C@@H](OC(=O)c3cccnc3)CN2C1=O [Compound 30, 18-(nicotinoyloxy)-14-tert-butoxycarbonylamino-4-cyclopropylsulfonylaminocarbonyl-2,15-dioxo-3,16-diazatricyclo-[14.3.0.0^4,6]-nonadec-7-ene] | < 100 | > 1000 | 157 to 159 | – |
| COC(=O)c1ccc(C(=O)O[C@@H]2C[C@H]3C(=O)N[C@]4(C(=O)NS(=O)(=O)C5CC5)C[C@H]4/C=C\CCCCC[C@H](NC(=O)OC(C)(C)C)C(=O)N3C2)cc1 [Compound 31] | < 100 | < 100 | 154 to 156 | – |
| CC(C)(C)OC(=O)N[C@H]1CCCCC/C=C\[C@@H]2C[C@@]2(C(=O)NS(=O)(=O)C2CC2)NC(=O)[C@@H]2C[C@@H](OC(=O)c3ccc(-n4cccn4)cc3)CN2C1=O [Compound 32, 18-(4-[1-pyrazolyl]benzoyloxy)-14-tert-butoxycarbonylamino-4-cyclopropylsulfonylaminocarbonyl-2,15-dioxo-3,16-diazatricyclo-[14.3.0.0^4,6]-nonadec-7-ene] | < 100 | < 100 | 167 to 169 | – |
| CC(C)(C)OC(=O)N[C@H]1CCCCC/C=C\[C@@H]2C[C@@]2(C(=O)NS(=O)(=O)C2CC2)NC(=O)[C@@H]2C[C@@H](OC(=O)c3cccc(C#N)c3)CN2C1=O [Compound 33, 18-(3-cyanobenzoyloxy)-14-tert-butoxycarbonylamino-4-cyclopropylsulfonylaminocarbonyl-2,15-dioxo-3,16-diazatricyclo-[14.3.0.0^4,6]-nonadec-7-ene] | < 100 | 100 to 1000 | 151 to 153 | – |
| Cc1cc(C(=O)O[C@@H]2C[C@H]3C(=O)N[C@]4(C(=O)NS(=O)(=O)C5CC5)C[C@H]4/C=C\CCCCC[C@H](NC(=O)OC(C)(C)C)C(=O)N3C2)no1 [Compound 34, 18-(5-methylisoxazole-3-carbonyloxy)-14-tert-butoxycarbonylamino-4-cyclopropylsulfonylaminocarbonyl-2,15-dioxo-3,16-diazatricyclo-[14.3.0.0^4,6]-nonadec-7-ene] | < 100 | > 1000 | 157 to 159 | – |
| Cc1cc(C(=O)O[C@@H]2C[C@H]3C(=O)N[C@]4(C(=O)NS(=O)(=O)C5CC5)C[C@H]4/C=C\CCCCC[C@H](NC(=O)OC(C)(C)C)C(=O)N3C2)n(C)n1 [Compound 35] | < 100 | 100 to 1000 | 149 to 151 | – |
| CC(C)(C)OC(=O)N[C@H]1CCCOC/C=C\[C@@H]2C[C@@]2(C(=O)NS(=O)(=O)C2CC2)NC(=O)[C@@H]2C[C@@H](OC(=O)NC3CCCCC3)CN2C1=O [Compound 36, 18-(cyclohexylaminocarbonyloxy)-14-tert-butoxycarbonylamino-4-cyclopropylsulfonylaminocarbonyl-2,15-dioxo-3,16-diaza-10-oxatricyclo-[14.3.0.0^4,6]-nonadec-7-ene] | 100 to 1000 | > 1000 | 156 to 158 | – |
| CC(C)(C)OC(=O)N[C@H]1CCCOC/C=C\[C@@H]2C[C@@]2(C(=O)NS(=O)(=O)C2CC2)NC(=O)[C@@H]2C[C@@H](OC(=O)NCC3CCCCC3)CN2C1=O [Compound 37, 18-cyclohexylmethylaminocarbonyloxyl-14-tert-butoxycarbonylamino-4-cyclopropylsulfonylaminocarbonyl-2,15-dioxo-3,16-diaza-10-oxatricyclo-[14.3.0.0^4,6]-nonadec-7-ene] | 100 to 1000 | > 1000 | 142 to 144 | – |
| COC(=O)c1ccccc1NC(=O)O[C@@H]1C[C@H]2C(=O)N[C@]3(C(=O)NS(=O)(=O)C4CC4)C[C@H]3/C=C\COCCC[C@H](NC(=O)OC(C)(C)C)C(=O)N2C1 [Compound 38, 18-(2-carbomethoxyphenylaminocarbonyloxy)-14-tert-butoxycarbonylamino-4-cyclopropylsulfonylaminocarbonyl-2,15-dioxo-3,16-diaza-10-oxatricyclo-[14.3.0.0^4,6]-nonadec-7-ene] | < 100 | – | 147 to 149 | 100 to 1000 |
| CC(C)(C)OC(=O)N[C@H]1COCCC/C=C\[C@@H]2C[C@@]2(C(=O)NS(=O)(=O)C2CC2)NC(=O)[C@@H]2C[C@@H](OC(=O)Nc3ccccc3Oc3ccccc3)CN2C1=O [Compound 40, 18-(2-phenoxyphenylaminocarbonyloxy)-14-tert-butoxycarbonylamino-4-cyclopropylsulfonylaminocarbonyl-2,15-dioxo-3,16-diaza-12-oxatricyclo-[14.3.0.0^4,6]-nonadec-7-ene] | 100 to 1000 | 100 to 1000 | 151 to 153 | – |
| CC(C)(C)OC(=O)N[C@H]1COCCC/C=C\[C@@H]2C[C@@]2(C(=O)NS(=O)(=O)C2CC2)NC(=O)[C@@H]2C[C@@H](OC(=O)Nc3ccc(Oc4ccccc4)cc3)CN2C1=O [Compound 41, 18-(4-phenoxyphenylaminocabonyloxy)-14-tert-butoxycarbonylamino-4-cyclopropylsulfonylaminocarbonyl-2,15-dioxo-3,16-diaza-12-oxatricyclo-[14.3.0.0^4,6]-nonadec-7-ene] | > 1000 | > 1000 | 163 to 165 | – |
| CC(C)(C)OC(=O)N[C@H]1COCCC/C=C\[C@@H]2C[C@@]2(C(=O)NS(=O)(=O)C2CC2)NC(=O)[C@@H]2C[C@@H](OC(=O)Nc3ccccc3-c3ccccc3)CN2C1=O [Compound 42, 18-(2-biphenylaminocarbonyloxy)-14-tert-butoxycarbonylamino-4-cyclopropylsulfonylaminocarbonyl-2,15-dioxo-3,16-diaza-12-oxatricyclo-[14.3.0.0^4,6]-nonadec-7-ene] | < 100 | 100 to 1000 | 147 to 149 | – |
